Substitutions are numbered along the chain they refer to. pEC50: −log10 of the molar value. “Also recorded” adds a separate entry of the source.
What was measured:
[1] = target: T1, WT-AR (Homo sapiens, UniProt P10275); conditions: concentrations up to 500 nM
T1 sequence (P10275 1-920): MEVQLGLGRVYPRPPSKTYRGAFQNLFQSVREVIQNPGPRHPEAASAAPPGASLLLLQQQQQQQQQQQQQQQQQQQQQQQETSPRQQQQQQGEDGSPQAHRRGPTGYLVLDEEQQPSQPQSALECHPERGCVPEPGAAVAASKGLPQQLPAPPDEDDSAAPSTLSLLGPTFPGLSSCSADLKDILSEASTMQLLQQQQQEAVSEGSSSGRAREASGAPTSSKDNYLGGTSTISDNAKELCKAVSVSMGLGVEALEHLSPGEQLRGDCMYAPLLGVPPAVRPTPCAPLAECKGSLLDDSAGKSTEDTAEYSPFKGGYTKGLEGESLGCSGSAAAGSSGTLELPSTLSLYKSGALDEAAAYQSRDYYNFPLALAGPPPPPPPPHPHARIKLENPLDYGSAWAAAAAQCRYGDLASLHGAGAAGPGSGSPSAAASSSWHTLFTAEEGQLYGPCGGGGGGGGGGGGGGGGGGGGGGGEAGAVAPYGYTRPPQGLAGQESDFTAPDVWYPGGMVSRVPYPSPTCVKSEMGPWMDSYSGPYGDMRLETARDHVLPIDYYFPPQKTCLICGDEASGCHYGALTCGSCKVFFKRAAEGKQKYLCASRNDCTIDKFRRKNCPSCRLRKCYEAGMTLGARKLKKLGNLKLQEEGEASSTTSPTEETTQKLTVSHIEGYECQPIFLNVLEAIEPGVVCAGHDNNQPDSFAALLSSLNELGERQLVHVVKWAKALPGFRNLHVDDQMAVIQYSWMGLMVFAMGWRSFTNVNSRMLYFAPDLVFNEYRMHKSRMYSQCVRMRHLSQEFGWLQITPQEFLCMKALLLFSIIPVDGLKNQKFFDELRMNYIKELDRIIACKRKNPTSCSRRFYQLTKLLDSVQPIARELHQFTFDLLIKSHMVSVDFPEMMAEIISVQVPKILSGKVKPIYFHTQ

[2] = target: T2, M896T-AR (Homo sapiens, UniProt P10275, M896T); test: cell-based
T2 sequence (P10275 1-920 M896T): T1 sequence (P10275 1-920) with M896T

[3] = target: T3, H875Y/T878A-AR (Homo sapiens, UniProt P10275, H875Y/T878A); test: cell-based
T3 sequence (P10275 1-920 H875Y/T878A): T1 sequence (P10275 1-920) with H875Y, T878A

## C[C@]12CCC(=O)C=C1CC[C@@H]1[C@@H]2[C@@H](O)C[C@@]2(C)[C@H]1CC[C@]2(O)C(=O)CO [hydrocortisone]
[1]
  Transcriptional activation of wild-type AR (in words): not activated; also recorded: did not exhibit any significant transcriptional activation
[2]
  pEC50: < 6.30
[3]
  pEC50: 6.98
